Source: US20250179059A1 (The Regents of the University of California, priority 2021, published 2025)
Where two headings read alike, the source gives them in different places.

Legend:
[1] = tested on: human SKM-1 acute myeloid leukemia cells; test: SKM-1 antiproliferation cell-based assay (ATPlite)
Method in brief: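 Log-phase cells in RPMI 1640/15% FBS were seeded at 34722 cells/mL and exposed for 4 days to nine-concentration DMSO serial dilutions in triplicate. Viability was read as ATP luminescence (ATPlite 1step), and IC50 values came from variable-slope non-linear regression.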

[2] = molecular target: T1, human BRD4 bromodomain II (Homo sapiens, UniProt O60885); test: Bromodomain binding assay (AlphaScreen), BRD4 BDII
T1 construct: human BRD4 bromodomain II [based on Genbank NM_058243, residues 349-460]; host or cells: E. coli
Method in brief: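 E. coli-expressed N-terminal His6-tagged human BRD4 BDII (residues 349-460) or BDI (residues 44-170) was preincubated 30 min at room temperature with compound (10-point, 3-fold) in pH 7.5 HEPES buffer, 1% DMSO. Displacement of biotinylated tetra-acetylated H4 1-21 peptide was read by AlphaScreen, and IC50 came from curve fitting.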

[3] = Homo sapiens, SKM-1, 96 h, SKM-1 antiproliferation assay, 4 days, Table C2
[4] = AlphaScreen assay, Table C2, read-out: BRD4 BDII IC50
[5] = Homo sapiens, SKM-1, SKM-1 antiproliferation assay
[6] = BRD4 BDII AlphaScreen assay, read-out: BRD4 BD2 IC50

Row | Structure (SMILES) | GI50 [1, 3] | IC50 [2, 4] | GI50 [1, 5] | IC50 [2, 6] | GI50 ([1]; SKM-1 antiproliferation assay)
1 | O=C1CCCCN1c1ccc(-c2cc(F)cc(-c3ccnc(N4CCNCC4)c3)c2O)cc1Cl [Example 281, 1-(3-chloro-5′-fluoro-2′-hydroxy-3′-(2-(piperazin-1-yl)pyridin-4-yl)-[1,1′-biphenyl]-4-yl)piperidin-2-one] | 300 to 3000 nM | 10 to 100 nM | – | – | –
2 | Cn1ccn(-c2ccc(-c3cc(F)cc(-c4ccnc(N5CCN(CC(C)(C)C)CC5)c4)c3O)cc2Cl)c1=O [Example 651, 1-(3-chloro-5′-fluoro-2′-hydroxy-3′-(2-(4-neopentylpiperazin-1-yl)pyridin-4-yl)-[1,1′-biphenyl]-4-yl)-3-methyl-1H-imidazol-2(3H)-one] | 30 to 300 nM | 0.01 to 1 nM | – | – | –
3 | C[C@@H]1CN(c2cncc(-c3cc(Cl)cc(-c4ccc(-n5ccn(C)c5=O)c(Cl)c4)c3O)c2)CCN1 [Example 529, (R)-1-(3,5′-dichloro-2′-hydroxy-3′-(5-(3-methylpiperazin-1-yl)pyridin-3-yl)-[1,1′-biphenyl]-4-yl)-3-methyl-1H-imidazol-2(3H)-one] | 0.3 to 30 nM | 1 to 10 nM | – | – | –
4 | Cc1ncc(-c2cc(F)cc(-c3ccc(-n4ccn(C)c4=O)c(Cl)c3)c2O)cc1N1CC[C@]2(CCCN2C(C)C)C1 [Example 956, (R)-1-(3-chloro-5′-fluoro-2′-hydroxy-3′-(5-(1-isopropyl-1,7-diazaspiro[4.4]nonan-7-yl)-6-methylpyridin-3-yl)-[1,1′-biphenyl]-4-yl)-3-methyl-1,3-dihydro-2H-imidazol-2-one] | – | – | 0.3 to 30 nM | 1 to 10 nM | –
5 | Cn1ccn(-c2ccc(-c3cc(F)cc(-c4ccnc(N5CC6(CC6)[C@](C)(O)C5)c4)c3O)cc2Cl)c1=O [Example 815] | 0.3 to 30 nM | 0.01 to 1 nM | – | – | –
6 | Cn1ccn(-c2ccc(-c3cc(F)cc(-c4cc(N5CC[C@@](C)(O)C5)n(C)c(=O)c4)c3O)cc2Cl)c1=O [Example 777, (R)-4-(3′-chloro-5-fluoro-2-hydroxy-4′-(3-methyl-2-oxo-2,3-dihydro-1H-imidazol-1-yl)-[1,1′-biphenyl]-3-yl)-6-(3-hydroxy-3-methylpyrrolidin-1-yl)-1-methylpyridin-2(1H)-one] | 0.3 to 30 nM | 0.01 to 1 nM | – | – | –
7 | CN1CCN(c2ccc(-c3cc(C(F)(F)F)cc(-c4ccnc(N5CCNCC5)c4)c3O)cc2Cl)C1=O [Example 332, 1-(3-chloro-2′-hydroxy-3′-(2-(piperazin-1-yl)pyridin-4-yl)-5′-(trifluoromethyl)-[1,1′-biphenyl]-4-yl)-3-methylimidazolidin-2-one] | ≥ 3000 nM | 10 to 100 nM | – | – | –
8 | Cn1ccn(-c2c(Cl)cc(-c3cc(F)cc(-c4cccc(N5CCN(C(C)(C)C)CC5)c4)c3O)cc2OC2CC2)c1=O [Example 930, 1-(3″-(4-(tert-butyl)piperazin-1-yl)-3-chloro-5-cyclopropoxy-5′-fluoro-2′-hydroxy-[1,1′:3′,1″-terphenyl]-4-yl)-3-methyl-1H-imidazol-2(3H)-one] | – | – | 300 to 3000 nM | > 100 nM | –
9 | CC(=O)Nc1ccc(-c2cc(F)cc(-c3cccc(N4CCN(C(C)(C)C)CC4)c3)c2O)nc1 [Example 912, N-(6-(3′-(4-(tert-butyl)piperazin-1-yl)-5-fluoro-2-hydroxy-[1,1′-biphenyl]-3-yl)pyridin-3-yl)acetamide] | – | – | 300 to 3000 nM | > 100 nM | –
10 | Cn1ccn(-c2ccc(-c3cc(F)cc(-c4ccnc(N5CC(F)(F)[C@@](C)(O)C5)c4)c3O)cc2Cl)c1=O [Example 881] | – | – | – | 0.01 to 1 nM | 30 to 300 nM
11 | Cn1ccn(-c2ccc(-c3cc(F)cc(-c4cncc(N5CC[C@H](N)C5)c4)c3O)cc2Cl)c1=O [Example 484, (S)-1-(3′-(5-(3-aminopyrrolidin-1-yl)pyridin-3-yl)-3-chloro-5′-fluoro-2′-hydroxy-[1,1′-biphenyl]-4-yl)-3-methyl-1H-imidazol-2(3H)-one] | 0.3 to 30 nM | 1 to 10 nM | – | – | –
12 | O=C1CCCN1c1ccc(-c2cccc(-c3ccnc(N4CCNCC4)c3)c2O)cc1F [Example 238, 1-(3-fluoro-2′-hydroxy-3′-(2-(piperazin-1-yl)pyridin-4-yl)-[1,1′-biphenyl]-4-yl)pyrrolidin-2-one] | 30 to 300 nM | 1 to 10 nM | – | – | –
13 | CNc1cc(-c2ccc(-n3ccn(C)c3=O)c(Cl)c2)c(O)c(-c2cccc(N3CCN(C(C)(C)C)CC3)c2)n1 [Example 1031, 1-(4-(2-(3-(4-(tert-Butyl)piperazin-1-yl)phenyl)-3-hydroxy-6-(methylamino)pyridin-4-yl)-2-chlorophenyl)-3-methyl-1H-imidazol-2(3H)-one] | – | – | 30 to 300 nM | 1 to 10 nM | –
14 | Cn1ccn(-c2ccc(-c3cc(F)cc(-c4cc(N5CC[C@](C)(N)C5)n(C)c(=O)c4)c3O)cc2Cl)c1=O [Example 765, (S)-6-(3-amino-3-methylpyrrolidin-1-yl)-4-(3′-chloro-5-fluoro-2-hydroxy-4′-(3-methyl-2-oxo-2,3-dihydro-1H-imidazol-1-yl)-[1,1′-biphenyl]-3-yl)-1-methylpyridin-2(1H)-one] | 0.3 to 30 nM | 1 to 10 nM | – | – | –
15 | CN[C@H]1CCCN(c2cncc(-c3cc(F)cc(-c4ccc(-n5ccn(C)c5=O)c(Cl)c4)c3O)c2)C1 [Example 478, (S)-1-(3-chloro-5′-fluoro-2′-hydroxy-3′-(5-(3-(methylamino)piperidin-1-yl)pyridin-3-yl)-[1,1′-biphenyl]-4-yl)-3-methyl-1H-imidazol-2(3H)-one] | 0.3 to 30 nM | 0.01 to 1 nM | – | – | –
16 | Cn1ccn(-c2ccc(-c3cc(F)cc(-c4ccnc(N5CCN(C67CC(C6)C7)CC5)c4)c3O)cc2Cl)c1=O [Example 662, 1-(3′-(2-(4-(bicyclo[1.1.1]pentan-1-yl)piperazin-1-yl)pyridin-4-yl)-3-chloro-5′-fluoro-2′-hydroxy-[1,1′-biphenyl]-4-yl)-3-methyl-1H-imidazol-2(3H)-one] | 30 to 300 nM | 1 to 10 nM | – | – | –
17 | CN1CCN(c2ccc(-c3cc(F)cc(-c4ccnc(N5CC[C@H](N)C5)c4)c3O)cc2Cl)C1=O [Example 353, (S)-1-(3′-(2-(3-aminopyrrolidin-1-yl)pyridin-4-yl)-3-chloro-5′-fluoro-2′-hydroxy-[1,1′-biphenyl]-4-yl)-3-methylimidazolidin-2-one] | 30 to 300 nM | 1 to 10 nM | – | – | –
18 | Cc1ccc(-c2cc(F)cc(-c3ccc(-n4ccn(C)c4=O)c(Cl)c3)c2O)cc1N1CC[C@@](C)(O)C1 [Example 808, (R)-1-(3-chloro-5′-fluoro-2′-hydroxy-3″-(3-hydroxy-3-methylpyrrolidin-1-yl)-4″-methyl-[1,1′:3′,1″-terphenyl]-4-yl)-3-methyl-1H-imidazol-2(3H)-one] | 30 to 300 nM | 1 to 10 nM | – | – | –
19 | COC[C@@H]1CN(c2cc(-c3cc(F)cc(-c4ccc(-n5ccn(C)c5=O)c(Cl)c4)c3O)ccn2)CCN1 [Example 666, (S)-1-(3-chloro-5′-fluoro-2′-hydroxy-3′-(2-(3-(methoxymethyl)piperazin-1-yl)pyridin-4-yl)-[1,1′-biphenyl]-4-yl)-3-methyl-1H-imidazol-2(3H)-one] | 0.3 to 30 nM | 0.01 to 1 nM | – | – | –
20 | CN1CCN(c2ccc(-c3cc(F)cc(-c4cnc(N5CCOCC5)c(N5CCNCC5)c4)c3O)cc2Cl)C1=O [Example 415, 1-(3-chloro-5′-fluoro-2′-hydroxy-3′-(6-morpholino-5-(piperazin-1-yl)pyridin-3-yl)-[1,1′-biphenyl]-4-yl)-3-methylimidazolidin-2-one] | 30 to 300 nM | 1 to 10 nM | – | – | –
21 | Cn1ccn(-c2ccc(-c3cc(F)cc(-c4ccnc(N5CC6(CNC6)C5)c4)c3O)cc2Cl)c1=O [Example 455, 1-(3′-(2-(2,6-diazaspiro[3.3]heptan-2-yl)pyridin-4-yl)-3-chloro-5′-fluoro-2′-hydroxy-[1,1′-biphenyl]-4-yl)-3-methyl-1H-imidazol-2(3H)-one] | 30 to 300 nM | 1 to 10 nM | – | – | –
22 | [2H]C([2H])([2H])n1ccn(-c2ccc(-c3cc(F)cc(-c4ccnc(N5CCNCC5)c4)c3O)cc2Cl)c1=O [Example 409, 1-(3-chloro-5′-fluoro-2′-hydroxy-3′-(2-(piperazin-1-yl)pyridin-4-yl)-[1,1′-biphenyl]-4-yl)-3-(trideuteromethyl)-1H-imidazol-2(3H)-one] | 0.3 to 30 nM | 1 to 10 nM | – | – | –
23 | Cc1cc(-c2ccc(-n3ccn(C)c3=O)c(C)c2)c(O)c(-c2cccc(N3CCN(C(C)(C)C)CC3)c2)n1 [Example 1012, 1-(4-(2-(3-(4-(tert-butyl)piperazin-1-yl)phenyl)-3-hydroxy-6-methylpyridin-4-yl)-2-methylphenyl)-3-methyl-1H-imidazol-2(3H)-one] | – | – | 0.3 to 30 nM | 1 to 10 nM | –
24 | C[C@@H]1CN(c2cc(-c3cc(F)cc(-c4ccc(N5CCN(C)C5=O)c(Cl)c4)c3O)ccn2)CCN1 [Example 359, (R)-1-(3-chloro-5′-fluoro-2′-hydroxy-3′-(2-(3-methylpiperazin-1-yl)pyridin-4-yl)-[1,1′-biphenyl]-4-yl)-3-methylimidazolidin-2-one] | 30 to 300 nM | 1 to 10 nM | – | – | –
25 | Cn1ccn(-c2ccc(-c3cc(F)cc(-c4cc(N5CC6CCC(C5)N6)c5cnn(C)c5c4)c3O)cc2Cl)c1=O [Example 607, 1-(3′-(4-(3,8-diazabicyclo[3.2.1]octan-3-yl)-1-methyl-1H-indazol-6-yl)-3-chloro-5′-fluoro-2′-hydroxy-[1,1′-biphenyl]-4-yl)-3-methyl-1H-imidazol-2(3H)-one] | 0.3 to 30 nM | 0.01 to 1 nM | – | – | –
26 | CNC1(c2cccc(-c3cc(F)cc(-c4ccc(-n5ccn(C)c5=O)c(Cl)c4)c3O)c2)CC1 [Example 799, 1-(3-chloro-5′-fluoro-2′-hydroxy-3″-(1-(methylamino)cyclopropyl)-[1,1′:3′,1″-terphenyl]-4-yl)-3-methyl-1H-imidazol-2(3H)-one] | 30 to 300 nM | 0.01 to 1 nM | – | – | –
